Test [1] relates to dopamine and its metabolite levels in the striatum, AAV-A53T mouse model of PD-like pathology. Briefly: Dopamine and metabolites in ipsilateral and contralateral striatum by HPLC. It is filed as in vivo, C57Bl/6J male mice. As to conditions: for dopamine levels in striatum: vs AAV-A53T vehicle. The procedure:
(§1) For this study, a total of 110 male C57Bl/6J mice two months of age were infused with either AAV-A53T (90 mice) or AAV-Null (20 mice) into substantia nigra unilaterally to induce PD-like pathology or to serve as sham controls, respectively. Mice infused with AAV-Null (empty) vector (“sham-infused” mice) were used in order to control for the effect of the viral infusion. After 7 or 14 days of AAV-A53T mediated disease model induction, the mice were treated with RTX (0.04 μg or 0.125 μg) (5 μL volume, prepared from a 25 μg/ml RTX solution containing Polysorbate 80 at 0.03% w/v, dextrose at 0.05% w/v, Phosphate Buffer at 30 mM, and NaCl 0.54% w/v, pH 7.2, and diluted in saline as needed) by single intrathecal infusion at lumbar spinal cord area. One AAV-Null and AAV-A53T infused group per each time point were treated with vehicle instead of RTX.
(§2) The mice were then treated with RTX or vehicle by intrathecal infusion 7 or 14 days after AAV infusion. The mice were assigned to treatment groups as follows: • Group 1: 10 male mice sham-infused with AAV-null, and administered vehicle at D7. • Group 2: 15 male mice infused with AAV-A53T, and administered vehicle at D7. • Group 3: 15 male mice infused with AAV-A53T, and administered 0.04 μg of RTX at D7. • Group 4: 15 male mice infused with AAV-A53T, and administered 0.125 μg of RTX at D7. • Group 5: 10 male mice sham-infused with AAV-null, and administered vehicle at D14. • Group 6: 15 male mice infused with AAV-A53T, and administered vehicle at D14. • Group 7: 15 male mice infused with AAV-A53T, and administered 0.04 μg of RTX at D14. • Group 8: 15 male mice infused with AAV-A53T, and administered 0.125 μg of RTX at D14.
Body weight of the animals was monitored two times per week. Fine motor kinematic analysis was performed 7 weeks after AAV infusion. 8 weeks post AAV infusion, the mice were euthanized and subjected to tissue sample collection. Dopamine and its metabolites were analyzed from ipsilateral and contralateral striata by high performance liquid chromatography (HPLC).
Ipsi- and contralateral striatum were collected in 1.5 mL Eppendorf tubes, snap-frozen on dry ice (i.e. left and right separately), weighed and stored at −80° C. for HPLC analysis of dopamine and its metabolites.
Dopamine (DA), 3,4-dihydroxyphenylacetic acid (DOPAC) and homovanillic acid (HVA) concentrations in mouse striatal tissue samples were determined by high performance liquid chromatography (HPLC) method with electrochemical detection. After thawing on ice, tissue samples were homogenized (1:10, w/v) in 0.1 M perchloric acid with MSE Soniprep 150 ultrasonic disintegrator (MSE Scientific Instruments, Crawley, UK). Tissue homogenates were centrifuged for 15 min at 15000 g at 4° C. Supernatants were filtered through polypropylene membrane (GHP Acrodisc 13 0.45 μm, Pall Corporation, Ann Arbor, MI, USA) and diluted (1:1) with 0.1 M perchloric acid. The samples were transferred into plastic vials and analyzed immediately.
The ESA HPLC system (ESA Inc., Chelmsford, MA, USA) consists of a 582 solvent delivery system, a DG-1210 vacuum degasser, an 542 autosampler, a 880 thermostatted chamber, an eight-channel CoulArray® 5600 electrochemical array detector equipped with a two-channel 5014B microdialysis cell and a CoulArray® for Windows data acquisition module (version 1.00). The applied potentials are −175 mV (channel 1), +225 mV (channel 2), +350 mV (channel 3) and +450 mV (channel 4). DA and DOPAC are detected on channel 2 and HVA on channel 3. Injection volume is 10 μl.
The analytes were separated on a Zorbax SB-Aq reversed-phase column (2.1×100 mm, 3.5 μm, Agilent Technologies Inc., Little Falls, Wilmington, DE, USA) with a Zorbax SB-Aq precolumn (2.1×12.5 mm, 5 μm) in an isocratic run. The column was maintained at 35° C. The mobile phase was 100 mM monobasic sodium phosphate containing 4.75 mM citric acid monohydrate, 7 mM 1-octanesulfonic acid and 50 μM disodium EDTA-acetonitrile mixture (98:2, v/v). […]

Test [2] relates to AAV-A53T mouse model of Parkinson's Disease-like (PD) pathology. Briefly: Fine motor kinematic gait analysis 7 weeks after AAV infusion. As to conditions: for overall gait analysis score: vs AAV1/2-A53T Vehicle. It is filed as in vivo, C57Bl/6J male mice. As to the method:
as §1, §2
The fine motor skills of the mice were evaluated 7 weeks post infusion (MotoRater, TSE Systems, Homburg, Germany) using walking mode. On the day of testing the mice were marked in appropriate points of body, such as joints of limbs and parts of tail to ease the data analysis process. The movement data was captured using a high-speed camera (300 frames/second) from three different dimensions, from below and both sides. Different gait patterns and movements were analyzed using a custom-made automated analysis system. The analyzed parameters include: 1) general gait pattern parameters (stride time and speed, step width, stance and swing time during a stride, interlimb coordination), 2) body posture and balance (toe clearance, iliac crest and hip height, hind limb protraction and retraction, tail position and movement), and 3) fine motor skills (swing speed during a stride, jerk metric during swing phase, angle ranges and deviations of different joints, vertical and horizontal head movement).
The gait parameters always have several (and complex) inter-correlations. For example, a shorter stride duration and longer step lengths lead to higher speed. Different “gait features”, which are manifested in sets of highly correlating parameters, can be identified using Principal Component Analysis (PCA). Principal Component Analysis is a statistical tool to compact the information in a multivariate data set, reveal correlations between original variables, and ultimately, create a small set of new and sensitive uncorrelated parameters, the principal components (PC).
PCA is a linear transformation based on principal component coefficients and eigenvectors. The transformed, new, uncorrelated variables are called the PC scores. The first principal component (PC) corresponds to such linear combination of data which has the largest possible variance. The second PC has again the largest possible variance of what is left when the proportion of the first PC is discarded, and so on for the rest of the PCs. The eigen vectors also reveal information about the internal structure of the data, i.e., mutually correlated parameters. Each PC score represent combined information of all the parameters which are emphasized in the corresponding PC. […]

Where [3] appears, read: high dose, 7 days after AAV-A53T infusion, statistically non-significant (one-way ANOVA).
Setting [4] is: D7 both doses, vs AAV-A53T Vehicle, p<0.05 unpaired t-test.
[5] abbreviates: D7 high dose, vs AAV-A53T Vehicle, p<0.05 unpaired t-test.

“Also recorded” adds a separate entry of the source.

Consider `C=C(C)[C@]12C[C@@H](C)[C@@]34O[C@](Cc5ccccc5)(O[C@@H]1[C@@H]3C=C(COC(=O)Cc1ccc(O)c(OC)c1)C[C@]1(O)C(=O)C(C)=C[C@@H]41)O2` [RTX, Resiniferatoxin], for which the “dopamine and its metabolites levels, treatment effect” value in test [1] (AAV-A53T vehicle groups vs corresponding RTX groups, striata 8 weeks after model induction) was “no significant effects of RTX treatment; also recorded: no significant treatment effect”. Moreover, the “dopamine turnover ((DOPAC + HVA) / dopamine)” value in test [1] (both doses, 7 and 14 days after AAV-A53T infusion, statistically non-significant (Kruskal-Wallis test)) is “minor trend towards even higher turnover rates”. In addition, in test [1] (groups treated at day 14), the “DOPAC levels in striatum” value was “non-significant trend of lower DOPAC levels”, the “HVA levels in striatum” value is given as “non-significant trend of lower HVA levels” and the “dopamine levels in striatum” value is given as “non-significant trend of lower dopamine levels”. Further, in test [1] (setting [3]), the “DOPAC levels in striatum” value is reported as “minor trend towards higher DOPAC levels”, the “HVA level in striatum” value is “minor trend towards higher concentration” and the “dopamine levels in striatum” value was “minor trend towards higher dopamine levels”. In test [2] (setting [4]), the diagonal gait result is “significantly recovered” and the “hip ROM” value is listed as “significantly recovered”. Moreover, in test [2] (setting [5]), the “hind limb stance time” value is recorded as “significantly recovered”; the “hip ROM deviation” value is “significantly recovered”; the “homolateral and homologous gait” value was “significantly recovered”; the minimum knee angle result is reported as “significantly recovered”. For the same compound, in test [2] (setting [5]), the “single and double support” value was “significantly recovered”; the stride time result was “significantly recovered”; the support diagonal result was “significantly recovered”; the support three result is listed as “significantly recovered”. Also, in test [2] (D14 both doses, vs AAV-A53T Vehicle, p<0.05 unpaired t-test), the head rotation result is reported as “significantly recovered”. Moreover, the “hip ROM” value in test [2] (D14 high dose, vs AAV-A53T Vehicle, p<0.05 unpaired t-test) is given as “significantly recovered”. Moreover, the “overall gait analysis score” value in test [2] (RTX 0.04 μg at D7, Dunnett's test p=0.0063) is “significant treatment effect; also recorded: significantly improved”. In addition, the “overall gait analysis score” value in test [2] (RTX 0.125 μg at D7, Dunnett's test p=0.0011) is on record as “significant treatment effect; also recorded: significantly improved”. Further, the “overall gait analysis score” value in test [2] (both RTX doses at D14, p>0.05 one-way ANOVA) is reported as “statistically non-significant trend towards the respective AAV-Null group; also recorded: statistically non-significant trending effect; also recorded: not statistically significant; also recorded: trend towards the AAV1/2-Null group”. Besides, the “recovery of motor functions / motor skills” value in test [2] (early RTX treatment (D7), analyzed 7 weeks after AAV infusion) was “significant rescuing effect; also recorded: dose-dependent recovery of motor functions”.

These data come from patent US12201608B2, “Methods for treating Parkinson's disease by administering resiniferatoxin” (Sorrento Therapeutics, Inc., priority 2018, dated 2025).
